The record followed here is ChEMBL document CHEMBL4304811, “Development of a Water-Soluble Indolylmaleimide Derivative IM-93 Showing Dual Inhibition of Ferroptosis and NETosis” (ACS Med Chem Lett, 2019).

Molecules are shown by their SMILES. Active and inactive are the calls of the source. No cut-off for these calls is given here.

Test [1] concerns Tyrosine-protein kinase ABL1 (Homo sapiens), P00519 [T315I]. Description: Binding affinity to human phosphorylated ABL1 T315I mutant (S229 to K512 residues) expressed in mammalian expression system assessed as residual binding level at 10 uM by Kinomescan method relative to control.
The target of test [2] is Tyrosine-protein kinase ABL1 (Homo sapiens) (UniProt P00519). Description: Binding affinity to wild-type human non-phosphorylated ABL1 (S229 to K512 residues) expressed in mammalian expression system assessed as residual binding level at 10 uM by Kinomescan method relative to control.
Test [3] addresses Tyrosine-protein kinase receptor UFO (Homo sapiens) (UniProt P30530). Put plainly: Binding affinity to wild-type human partial length AXL (R497 to Y821 residues) expressed in bacterial expression system assessed as residual binding level at 10 uM by Kinomescan method relative to control.
Test [4] concerns the target Serine/threonine-protein kinase 17B (Homo sapiens) (UniProt O94768). Description: Binding affinity to wild-type human full length DRAK2 (M1 to C372 residues) expressed in bacterial expression system assessed as residual binding level at 10 uM by Kinomescan method relative to control.
Test [5] has as its target Dual specificity tyrosine-phosphorylation-regulated kinase 1B (Homo sapiens) (UniProt Q9Y463). Put plainly: Binding affinity to wild-type human full length DYRK1B (M1 to S629 residues) expressed in bacterial expression system assessed as residual binding level at 10 uM by Kinomescan method relative to control.
The subject of test [6] is Epidermal growth factor receptor (Homo sapiens), P00533 [UNDEFINED MUTATION]. Description: Binding affinity to human partial length EGFR S752-I759del mutant expressed in bacterial expression system assessed as residual binding level at 10 uM by Kinomescan method relative to control.
For test [7], the target named is Ephrin type-B receptor 3 (Homo sapiens) (UniProt P54753). Put plainly: Binding affinity to wild-type human partial length EPHB3 (Q599 to T928 residues) expressed in bacterial expression system assessed as residual binding level at 10 uM by Kinomescan method relative to control.
Test [8] has as its target Ephrin type-B receptor 6 (Homo sapiens) (UniProt O15197). Description: Binding affinity to wild-type human partial length EPHB6 (Q634 to P948 residues) expressed in mammalian expression system assessed as residual binding level at 10 uM by Kinomescan method relative to control.
For test [9], the target named is Tyrosine-protein kinase Fes/Fps (Homo sapiens) (UniProt P07332). Description: Binding affinity to wild-type human partial length FES (I527 to R822 residues) expressed in bacterial expression system assessed as residual binding level at 10 uM by Kinomescan method relative to control.
In test [10] the target is Tyrosine-protein kinase Lyn (Homo sapiens) (UniProt P07948). Description: Binding affinity to wild-type human partial length LYN (C219 to Q511 residues) expressed in bacterial expression system assessed as residual binding level at 10 uM by Kinomescan method relative to control.
In test [11] the target is Microtubule-associated serine/threonine-protein kinase 1 (Homo sapiens) (UniProt Q9Y2H9). Put plainly: Binding affinity to wild-type human partial length MAST1 (S346 to V730 residues) expressed in mammalian expression system assessed as residual binding level at 10 uM by Kinomescan method relative to control.
Test [12] deals with Hepatocyte growth factor receptor (Homo sapiens), P08581 [M1250T]. Put plainly: Binding affinity to human partial length MET M1250T mutant (D1010 to S1367 residues) expressed in bacterial expression system assessed as residual binding level at 10 uM by Kinomescan method relative to control.
The test system of test [13] is Phosphatidylinositol 4,5-bisphosphate 3-kinase catalytic subunit alpha isoform (Homo sapiens), P42336 [E542K]. Description: Binding affinity to human partial length PIK3CA E542K mutant (R108 to N1068 residues) expressed in mammalian expression system assessed as residual binding level at 10 uM by Kinomescan method relative to control.
The subject of test [14] is Phosphatidylinositol 4,5-bisphosphate 3-kinase catalytic subunit alpha isoform (Homo sapiens), P42336 [E545A]. Description: Binding affinity to human partial length PIK3CA E545A mutant (R108 to N1068 residues) expressed in mammalian expression system assessed as residual binding level at 10 uM by Kinomescan method relative to control.
The target in test [15] is Serine/threonine-protein kinase PLK4 (Homo sapiens) (UniProt O00444). Description: Binding affinity to wild-type human partial length PLK4 (M1 to S273 residues) expressed in mammalian expression system assessed as residual binding level at 10 uM by Kinomescan method relative to control.
Test [16] addresses Serine/threonine-protein kinase D2 (Homo sapiens) (UniProt Q9BZL6). Description: Binding affinity to wild-type human partial length PRKD2 (A519 to E838 residues) expressed in bacterial expression system assessed as residual binding level at 10 uM by Kinomescan method relative to control.
The target in test [17] is Interferon-induced, double-stranded RNA-activated protein kinase (Homo sapiens) (UniProt P19525). Description: Binding affinity to wild-type human partial length PRKR (F247 to C551 residues) expressed in bacterial expression system assessed as residual binding level at 10 uM by Kinomescan method relative to control.
Test [18] deals with Receptor-interacting serine/threonine-protein kinase 2 (Homo sapiens) (UniProt O43353). Put plainly: Binding affinity to wild-type human partial length RIPK2 (M1 to K310 residues) expressed in bacterial expression system assessed as residual binding level at 10 uM by Kinomescan method relative to control.
Test [19] deals with Ribosomal protein S6 kinase beta-1 (Homo sapiens) (UniProt P23443). Put plainly: Binding affinity to wild-type human partial length S6K1 (M1 to S421 residues) expressed in mammalian expression system assessed as residual binding level at 10 uM by Kinomescan method relative to control.
Test [20] has as its target Serine/threonine-protein kinase tousled-like 2 (Homo sapiens) (UniProt Q86UE8). Description: Binding affinity to wild-type human partial length TLK2 (E424 to N749 residues) expressed in bacterial expression system assessed as residual binding level at 10 uM by Kinomescan method relative to control.
In test [21] the target is Wee1-like protein kinase 2 (Homo sapiens) (UniProt P0C1S8). Put plainly: Binding affinity to wild-type human partial length WEE2 (M204 to K492 residues) expressed in bacterial expression system assessed as residual binding level at 10 uM by Kinomescan method relative to control.
For test [22], the target named is Serine/threonine-protein kinase WNK1 (Homo sapiens) (UniProt Q9H4A3). Description: Binding affinity to wild-type human partial length WNK1 (Q194 to A490 residues) expressed in mammalian expression system assessed as residual binding level at 10 uM by Kinomescan method relative to control.
The next test relates to THP-1. Put plainly: Inhibition of Staphylococcus aureus-induced pyroptosis in human THP1 cells at 10 uM preincubated for 1 hr followed by bacterial infection and measured after 2 hrs by INT dye based LDH assay. Format: functional, cell-based.
The subject of a further test is Neutrophil. Description: Inhibition of PMA-induced NETosis in human neutrophils at 25 uM preincubated for 30 mins followed by PMA stimulation and measured after 3 hrs by Hoechst […] staining based fluorescence microscopic analysis. Format: functional, cell-based.

Sequence of Serine/threonine-protein kinase tousled-like 2 (Homo sapiens) (Q86UE8 whole entry, looked up, the tested form may be a part): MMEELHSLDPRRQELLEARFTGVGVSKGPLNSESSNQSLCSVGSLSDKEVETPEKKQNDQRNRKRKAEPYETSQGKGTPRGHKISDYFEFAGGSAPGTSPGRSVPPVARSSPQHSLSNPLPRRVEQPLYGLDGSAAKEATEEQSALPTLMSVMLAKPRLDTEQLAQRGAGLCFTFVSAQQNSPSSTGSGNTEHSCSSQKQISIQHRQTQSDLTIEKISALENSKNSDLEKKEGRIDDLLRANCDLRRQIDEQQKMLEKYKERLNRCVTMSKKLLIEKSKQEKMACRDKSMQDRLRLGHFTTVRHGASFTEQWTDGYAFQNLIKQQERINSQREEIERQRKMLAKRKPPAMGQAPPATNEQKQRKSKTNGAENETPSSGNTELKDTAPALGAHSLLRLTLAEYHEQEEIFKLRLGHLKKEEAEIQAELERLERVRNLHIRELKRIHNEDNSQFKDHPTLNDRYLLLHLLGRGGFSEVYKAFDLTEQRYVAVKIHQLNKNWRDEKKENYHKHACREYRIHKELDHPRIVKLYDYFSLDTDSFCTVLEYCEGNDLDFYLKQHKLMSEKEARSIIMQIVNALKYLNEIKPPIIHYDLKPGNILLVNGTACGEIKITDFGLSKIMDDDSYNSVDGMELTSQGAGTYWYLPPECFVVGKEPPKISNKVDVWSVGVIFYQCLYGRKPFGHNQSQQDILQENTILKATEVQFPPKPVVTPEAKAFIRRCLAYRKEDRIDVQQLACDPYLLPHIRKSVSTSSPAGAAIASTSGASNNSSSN
Sequence of Microtubule-associated serine/threonine-protein kinase 1 (Homo sapiens) (Q9Y2H9 whole entry, looked up, the tested form may be a part): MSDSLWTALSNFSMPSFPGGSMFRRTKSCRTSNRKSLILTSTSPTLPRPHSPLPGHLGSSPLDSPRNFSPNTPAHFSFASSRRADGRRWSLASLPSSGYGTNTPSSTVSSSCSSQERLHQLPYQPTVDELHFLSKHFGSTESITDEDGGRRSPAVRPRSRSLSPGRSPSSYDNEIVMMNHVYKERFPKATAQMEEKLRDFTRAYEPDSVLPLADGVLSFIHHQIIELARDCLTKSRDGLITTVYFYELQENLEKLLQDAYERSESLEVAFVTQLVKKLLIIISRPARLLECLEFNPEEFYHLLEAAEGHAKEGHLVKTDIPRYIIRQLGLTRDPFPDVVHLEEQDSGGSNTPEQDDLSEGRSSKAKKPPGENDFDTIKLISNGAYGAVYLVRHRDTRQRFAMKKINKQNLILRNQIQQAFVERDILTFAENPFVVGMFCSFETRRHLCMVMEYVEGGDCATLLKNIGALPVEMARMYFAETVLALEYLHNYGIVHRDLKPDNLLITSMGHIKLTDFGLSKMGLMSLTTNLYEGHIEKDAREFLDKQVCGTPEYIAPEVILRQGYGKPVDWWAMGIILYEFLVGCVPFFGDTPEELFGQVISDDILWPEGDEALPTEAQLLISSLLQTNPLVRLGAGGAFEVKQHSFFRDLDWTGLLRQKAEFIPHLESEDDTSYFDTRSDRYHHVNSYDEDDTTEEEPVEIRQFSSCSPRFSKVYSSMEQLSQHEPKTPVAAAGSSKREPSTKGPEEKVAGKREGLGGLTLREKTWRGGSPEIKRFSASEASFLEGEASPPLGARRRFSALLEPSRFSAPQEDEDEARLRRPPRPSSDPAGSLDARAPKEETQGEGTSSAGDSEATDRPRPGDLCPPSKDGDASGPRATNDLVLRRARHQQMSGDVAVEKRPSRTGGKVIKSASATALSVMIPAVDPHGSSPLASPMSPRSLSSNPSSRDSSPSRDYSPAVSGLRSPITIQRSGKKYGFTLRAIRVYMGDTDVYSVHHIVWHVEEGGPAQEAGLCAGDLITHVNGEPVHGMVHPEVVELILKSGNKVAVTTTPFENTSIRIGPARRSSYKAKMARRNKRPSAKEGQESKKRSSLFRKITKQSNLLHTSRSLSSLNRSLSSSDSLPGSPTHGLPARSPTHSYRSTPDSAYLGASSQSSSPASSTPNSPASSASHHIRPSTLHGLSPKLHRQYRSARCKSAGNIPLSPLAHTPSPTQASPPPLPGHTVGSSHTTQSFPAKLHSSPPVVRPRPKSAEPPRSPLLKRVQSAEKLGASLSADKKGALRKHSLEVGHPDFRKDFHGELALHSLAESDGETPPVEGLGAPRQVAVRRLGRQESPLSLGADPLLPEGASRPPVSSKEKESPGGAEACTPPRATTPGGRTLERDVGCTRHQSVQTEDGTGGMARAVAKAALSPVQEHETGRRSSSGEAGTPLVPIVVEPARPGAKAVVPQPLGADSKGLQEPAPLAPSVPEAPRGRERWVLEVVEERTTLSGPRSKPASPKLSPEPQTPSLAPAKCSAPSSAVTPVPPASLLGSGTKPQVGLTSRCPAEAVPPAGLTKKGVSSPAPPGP
Sequence of Epidermal growth factor receptor (Homo sapiens), P00533 [UNDEFINED MUTATION] (P00533 whole entry, looked up, stated change not applied, the tested form may be a part): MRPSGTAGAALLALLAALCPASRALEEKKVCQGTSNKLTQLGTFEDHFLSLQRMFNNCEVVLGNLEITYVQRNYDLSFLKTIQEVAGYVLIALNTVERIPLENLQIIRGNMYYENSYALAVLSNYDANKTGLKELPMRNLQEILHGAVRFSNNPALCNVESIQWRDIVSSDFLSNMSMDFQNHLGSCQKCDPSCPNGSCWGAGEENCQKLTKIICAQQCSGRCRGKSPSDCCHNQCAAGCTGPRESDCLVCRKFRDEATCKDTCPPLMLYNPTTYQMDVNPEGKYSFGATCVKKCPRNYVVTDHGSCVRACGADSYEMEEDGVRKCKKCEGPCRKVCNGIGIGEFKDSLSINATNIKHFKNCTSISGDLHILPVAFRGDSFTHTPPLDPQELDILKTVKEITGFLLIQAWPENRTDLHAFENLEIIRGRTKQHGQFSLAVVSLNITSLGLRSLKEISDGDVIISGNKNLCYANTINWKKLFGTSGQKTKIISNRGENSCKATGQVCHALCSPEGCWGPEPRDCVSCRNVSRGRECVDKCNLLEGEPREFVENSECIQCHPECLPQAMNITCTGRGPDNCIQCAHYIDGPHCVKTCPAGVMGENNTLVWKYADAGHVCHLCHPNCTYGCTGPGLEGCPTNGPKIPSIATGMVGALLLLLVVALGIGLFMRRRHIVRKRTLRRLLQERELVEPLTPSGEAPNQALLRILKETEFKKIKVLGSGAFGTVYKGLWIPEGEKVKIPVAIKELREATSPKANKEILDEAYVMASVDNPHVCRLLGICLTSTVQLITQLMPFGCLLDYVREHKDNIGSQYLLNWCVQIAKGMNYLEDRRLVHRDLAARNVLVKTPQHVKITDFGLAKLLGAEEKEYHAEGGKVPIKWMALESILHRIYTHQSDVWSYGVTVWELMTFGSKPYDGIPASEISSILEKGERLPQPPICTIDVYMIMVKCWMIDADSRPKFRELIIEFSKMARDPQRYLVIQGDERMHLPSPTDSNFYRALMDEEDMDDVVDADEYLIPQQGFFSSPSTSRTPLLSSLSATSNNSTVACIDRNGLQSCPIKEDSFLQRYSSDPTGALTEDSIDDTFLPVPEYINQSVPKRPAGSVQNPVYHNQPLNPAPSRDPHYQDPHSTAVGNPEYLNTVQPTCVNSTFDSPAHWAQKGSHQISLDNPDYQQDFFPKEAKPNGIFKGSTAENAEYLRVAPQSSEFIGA
Sequence of Ephrin type-B receptor 6 (Homo sapiens) (O15197 whole entry, the tested form may be a part): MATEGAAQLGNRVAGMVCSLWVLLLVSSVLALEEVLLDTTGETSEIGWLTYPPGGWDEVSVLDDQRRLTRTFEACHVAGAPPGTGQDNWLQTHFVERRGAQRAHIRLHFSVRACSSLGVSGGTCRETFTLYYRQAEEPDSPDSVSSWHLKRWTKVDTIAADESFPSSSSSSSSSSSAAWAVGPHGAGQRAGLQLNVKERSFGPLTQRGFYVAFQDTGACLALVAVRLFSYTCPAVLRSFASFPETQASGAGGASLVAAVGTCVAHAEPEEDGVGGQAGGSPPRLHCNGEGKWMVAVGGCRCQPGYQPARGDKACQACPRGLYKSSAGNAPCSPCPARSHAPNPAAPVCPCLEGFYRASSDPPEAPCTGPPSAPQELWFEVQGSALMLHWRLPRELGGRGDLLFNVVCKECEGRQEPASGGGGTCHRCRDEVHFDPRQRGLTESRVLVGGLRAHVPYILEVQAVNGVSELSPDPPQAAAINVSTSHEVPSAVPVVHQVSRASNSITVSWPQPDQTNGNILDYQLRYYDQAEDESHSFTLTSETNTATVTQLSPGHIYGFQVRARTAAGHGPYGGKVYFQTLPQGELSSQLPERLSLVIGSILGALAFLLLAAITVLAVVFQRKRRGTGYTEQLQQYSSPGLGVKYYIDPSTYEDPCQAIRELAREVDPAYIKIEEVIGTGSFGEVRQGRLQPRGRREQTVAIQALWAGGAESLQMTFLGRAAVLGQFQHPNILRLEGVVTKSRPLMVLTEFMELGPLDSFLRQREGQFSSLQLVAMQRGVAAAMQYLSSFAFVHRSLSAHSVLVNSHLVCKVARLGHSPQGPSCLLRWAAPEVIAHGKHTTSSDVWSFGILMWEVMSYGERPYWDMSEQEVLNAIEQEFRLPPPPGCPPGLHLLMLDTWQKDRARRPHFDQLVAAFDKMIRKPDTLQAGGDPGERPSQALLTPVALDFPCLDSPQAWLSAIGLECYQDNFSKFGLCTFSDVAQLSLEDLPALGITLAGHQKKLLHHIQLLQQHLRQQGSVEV
Sequence of Interferon-induced, double-stranded RNA-activated protein kinase (Homo sapiens) (P19525 whole entry, the tested form may be a part): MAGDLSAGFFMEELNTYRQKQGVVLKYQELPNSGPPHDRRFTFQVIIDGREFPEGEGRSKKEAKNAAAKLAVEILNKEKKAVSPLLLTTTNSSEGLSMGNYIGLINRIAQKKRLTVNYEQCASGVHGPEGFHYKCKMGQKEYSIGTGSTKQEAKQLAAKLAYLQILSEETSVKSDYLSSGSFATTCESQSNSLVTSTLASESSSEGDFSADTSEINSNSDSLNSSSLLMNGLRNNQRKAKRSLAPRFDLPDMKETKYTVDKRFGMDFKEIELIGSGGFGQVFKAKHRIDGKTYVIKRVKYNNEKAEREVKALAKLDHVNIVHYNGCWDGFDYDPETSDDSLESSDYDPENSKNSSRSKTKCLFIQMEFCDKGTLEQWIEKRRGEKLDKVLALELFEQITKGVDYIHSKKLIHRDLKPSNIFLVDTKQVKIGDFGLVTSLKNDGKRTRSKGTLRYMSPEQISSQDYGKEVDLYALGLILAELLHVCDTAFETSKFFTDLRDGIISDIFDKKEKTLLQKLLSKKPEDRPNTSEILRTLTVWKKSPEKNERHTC

Consider `CC(C)N1C(=O)C(NCCCN(C)C)=C(c2cn(C)c3ccccc23)C1=O.Cl`, for which the Activity was 90% in test [1]; 84% in test [2]; 99% in test [3]; 91% in [4]; 93% in test [5]; 97% in test [6]. The Activity in test [7] is 99%; in test [8], 74%; in [9], 100%; in [10], 98%; in test [11], 87%; in test [12] it was 100%. Also, the Activity in [13] amounted to 87%; in [14], 95%; in [15], 97%; in test [16], 93%; in test [17], 100%; in [18], 100%. Besides, the Activity amounted to 77% in [19], 84% in test [20], 100% in test [21] and 68% in [22]. Further, the inhibition result in the test on THP-1 is “inactive”. In addition, the inhibition entry in the test with Neutrophil was “Active”.
